Patent publication US20200038513A1, “MODULATORS OF FAK PROTEOLYSIS AND ASSOCIATED METHODS OF USE” (ARVINAS OPERATIONS, INC., priority 2018, published 2020)

Test system: MDA-MB-231 cells
Assay: RPPA (reverse phase protein array)
Format: cell-based, human
Conditions: 500nM
Protocol: RPPA analysis was performed by MD Anderson Cancer Center RPPA core facility.
Examination of the Molecular Signaling Events) and/or Downstream Pathways Responsible for the Migration and Invasion Effects Observed by Exemplary Compound Treatment. To pinpoint these observations to a molecular signaling event or specific downstream pathway, reverse phase protein array (RPPA) analysis was performed (Table 4).

For Cc1ncsc1-c1ccc(CNC(=O)[C@@H]2C[C@@H](O)CN2C(=O)[C@@H](NC(=O)CCOCCOc2ccc(Nc3ncc(C(F)(F)F)c(NCc4cccc(N(C)S(C)(=O)=O)c4)n3)cc2)C(C)(C)C)cc1 [Compound 102, (2S,4R)-1-((S)-3,3-dimethyl-2-(3-(2-(4-((4-((3-(N-methylmethylsulfonamido)benzyl)amino)-5-(trifluoromethyl)pyrimidin-2-yl)amino)phenoxy)ethoxy)propanamido)butanoyl)-4-hydroxy-N-(4-(4-methylthiazol-5-yl)benzyl)pyrrolidine-2-carboxamide], the “rel. Protein level, 4E-BP1” value was 110.6%, the “rel. Protein level, 4E-BP1_pS65” value was 92.3% and the “rel. Protein level, 14-3-3-beta” value was 100.5%. The “rel. Protein level, 14-3-3-zeta” value was 105.4%, the “rel. Protein level, 53BP1” value was 111.3% and the “rel. Protein level, A-Raf” value was 106.5%. The “rel. Protein level, ACC1” value was 103.3%, the “rel. Protein level, ACC_pS79” value was 95.4% and the “rel. Protein level, ADAR1” value was 121.2%. The “rel. Protein level, AMPK-a2_pS345” value was 97.2%, the “rel. Protein level, AMPKa” value was 105.1% and the “rel. Protein level, AMPKa_pT172” value was 92.7%. The “rel. Protein level, AR” value was 85.0%, the “rel. Protein level, ARID1A” value was 121.1% and the “rel. Protein level, ATM” value was 106.8%. For the same compound, the “rel. Protein level, ATM_pS1981” value was 99.7%, the “rel. Protein level, ATR_pS428” value was 99.2% and the “rel. Protein level, Akt” value was 101.7%. The “rel. Protein level, Akt_pS473” value was 74.2%, the “rel. Protein level, Akt_pT308” value was 94.2% and the “rel. Protein level, Annexin-I” value was 117.8%. For the same compound, the “rel. Protein level, Annexin-VII” value was 110.0%, the “rel. Protein level, Atg3” value was 98.3% and the “rel. Protein level, Atg7” value was 100.8%. For the same compound, the “rel. Protein level, Aurora-B” value was 92.3%, the “rel. Protein level, Axl” value was 94.7% and the “rel. Protein level, B7-H4” value was 97.5%. For the same compound, the “rel. Protein level, B-Raf” value was 110.9%, the “rel. Protein level, B-Raf_pS445” value was 108.0% and the “rel. Protein level, BAP1” value was 96.8%. For the same compound, the “rel. Protein level, BRD4” value was 118.7%, the “rel. Protein level, Bad_pS112” value was 102.3% and the “rel. Protein level, Bak” value was 100.7%. For the same compound, the “rel. Protein level, Bax” value was 110.5%, the “rel. Protein level, Bc1-xL” value was 97.6% and the “rel. Protein level, Bc12” value was 92.8%. The “rel. Protein level, Beclin_l” value was 100.0%, the “rel. Protein level, BiP-GRP78” value was 103.0% and the “rel. Protein level, Bid” value was 102.8%. The “rel. Protein level, Bim” value was 102.9%, the “rel. Protein level, C-Raf” value was 100.8% and the “rel. Protein level, C-Raf_pS338” value was 90.7%. The “rel. Protein level, CD4” value was 101.8%, the “rel. Protein level, CD20” value was 92.3% and the “rel. Protein level, CD29” value was 104.7%. The “rel. Protein level, CD31” value was 98.2%, the “rel. Protein level, CD44” value was 106.6% and the “rel. Protein level, CD45” value was 97.9%. The “rel. Protein level, CD49b” value was 116.5%, the “rel. Protein level, CD134” value was 99.0% and the “rel. Protein level, CDK1_pT14” value was 94.6%. The “rel. Protein level, COG3” value was 107.9%, the “rel. Protein level, Caspase-3” value was 106.7% and the “rel. Protein level, Caspase-7-cleaved-” value was 113.1%. The “rel. Protein level, Caspase-8” value was 102.4%, the “rel. Protein level, Caveolin-1” value was 141.0% and the “rel. Protein level, Chk2” value was 94.4%. For the same compound, the “rel. Protein level, Chk2_pT68” value was 103.4%, the “rel. Protein level, Chkl” value was 92.3% and the “rel. Protein level, Chkl_pS296” value was 96.6%. The “rel. Protein level, Claudin-7” value was 101.6%, the “rel. Protein level, Collagen-VI” value was 93.4% and the “rel. Protein level, Connexin-43” value was 92.3%. For the same compound, the “rel. Protein level, Cox2” value was 171.3%, the “rel. Protein level, Cox-IV” value was 104.5% and the “rel. Protein level, Creb” value was 103.4%. The “rel. Protein level, Cyclin-B1” value was 96.7%, the “rel. Protein level, Cyclin-D1” value was 105.2% and the “rel. Protein level, Cyclin-D3” value was 94.7%. For the same compound, the “rel. Protein level, Cyclin-E1” value was 110.5%, the “rel. Protein level, Cyclophilin-F” value was 97.6% and the “rel. Protein level, D-a-Tubulin” value was 95.2%. For the same compound, the “rel. Protein level, DJ1” value was 103.5%, the “rel. Protein level, DM-Histone-H3” value was 108.5% and the “rel. Protein level, DM-K9-Histone-H3” value was 111.9%. For the same compound, the “rel. Protein level, DUSP4” value was 142.6%, the “rel. Protein level, E2F1” value was 98.2% and the “rel. Protein level, E-Cadherin” value was 92.7%. For the same compound, the “rel. Protein level, EGFR” value was 98.2%, the “rel. Protein level, EGFR_pY1173” value was 101.5% and the “rel. Protein level, EMA” value was 109.4%. The “rel. Protein level, ENY2” value was 95.1%, the “rel. Protein level, ER” value was 98.1% and the “rel. Protein level, ER-a_pS118” value was 109.9%. For the same compound, the “rel. Protein level, ERCC1” value was 93.6%, the “rel. Protein level, ERCC5” value was 103.3% and the “rel. Protein level, Elk1_pS383” value was 97.5%. For the same compound, the “rel. Protein level, Ets-1” value was 97.7%, the “rel. Protein level, FAK” value was 55.4% and the “rel. Protein level, FAK_pY397” value was 86.4%. For the same compound, the “rel. Protein level, FASN” value was 92.6%, the “rel. Protein level, FOXM1” value was 92.4% and the “rel. Protein level, Fibronectin” value was 103.9%. The “rel. Protein level, FoxO3a” value was 100.5%, the “rel. Protein level, FoxO3a_pS318_S321” value was 96.0% and the “rel. Protein level, G6PD” value was 97.7%. For the same compound, the “rel. Protein level, GAPDH” value was 99.4%, the “rel. Protein level, GATA3” value was 97.2% and the “rel. Protein level, GATA-6” value was 99.4%. For the same compound, the “rel. Protein level, GCLM” value was 99.9%, the “rel. Protein level, GCN5L2” value was 99.4% and the “rel. Protein level, GSK-3a-b” value was 107.2%. For the same compound, the “rel. Protein level, GSK-3a-b_pS21_S9” value was 97.0%, the “rel. Protein level, Gab2” value was 100.5% and the “rel. Protein level, Glutamate-D1-2” value was 95.5%. For the same compound, the “rel. Protein level, Glutaminase” value was 111.5%, the “rel. Protein level, Granzyme-B” value was 101.4% and the “rel. Protein level, Gys” value was 111.6%. The “rel. Protein level, Gys_pS641” value was 105.2%, the “rel. Protein level, H2AX_pS140” value was 117.7% and the “rel. Protein level, HER2” value was 106.9%. For the same compound, the “rel. Protein level, HER2_pY1248” value was 97.5%, the “rel. Protein level, HER3” value was 102.8% and the “rel. Protein level, HER3_pY1289” value was 96.9%. For the same compound, the “rel. Protein level, HES1” value was 92.3%, the “rel. Protein level, HLA-DR-DP-DQ-DX” value was 101.7% and the “rel. Protein level, HSP27” value was 96.5%. The “rel. Protein level, HSP27_pS82” value was 95.4%, the “rel. Protein level, HSP70” value was 105.2% and the “rel. Protein level, Heregulin” value was 113.3%. For the same compound, the “rel. Protein level, Hexokinase-II” value was 99.4%, the “rel. Protein level, Hif-l-alpha” value was 130.8% and the “rel. Protein level, Histone-H3” value was 131.4%. The “rel. Protein level, IGF1R_pY1135_Y1136” value was 97.2%, the “rel. Protein level, IGFBP2” value was 89.0% and the “rel. Protein level, IGFRb” value was 98.5%. The “rel. Protein level, INPP4b” value was 98.0%, the “rel. Protein level, IR-b” value was 111.4% and the “rel. Protein level, IRF-1” value was 111.6%. The “rel. Protein level, IRS1” value was 101.4%, the “rel. Protein level, JNK2” value was 103.8% and the “rel. Protein level, JNK_pT183_Y185” value was 98.5%. The “rel. Protein level, Jagged1” value was 111.0%, the “rel. Protein level, Jak2” value was 107.2% and the “rel. Protein level, LC3A-B” value was 106.5%. For the same compound, the “rel. Protein level, LDHA” value was 123.8%, the “rel. Protein level, LRP6_pS1490” value was 128.4% and the “rel. Protein level, Lck” value was 96.8%. For the same compound, the “rel. Protein level, MAPK_pT202-Y204” value was 93.7%, the “rel. Protein level, MCT4” value was 126.7% and the “rel. Protein level, MDM2_pS166” value was 94.8%. For the same compound, the “rel. Protein level, MEK1” value was 106.4%, the “rel. Protein level, MEK1_p_S217-S221” value was 95.0% and the “rel. Protein level, MERIT40_pS29” value was 92.3%. The “rel. Protein level, MIF” value was 107.4%, the “rel. Protein level, MIG6” value was 106.7% and the “rel. Protein level, MMP2” value was 103.9%. For the same compound, the “rel. Protein level, MMP14-[EP1264Y]” value was 137.5%, the “rel. Protein level, MMP-14” value was 120.9% and the “rel. Protein level, MSH6” value was 97.8%. The “rel. Protein level, MSI2” value was 93.5%, the “rel. Protein level, Mcl-1” value was 89.4% and the “rel. Protein level, Merlin” value was 94.1%.
